Data reported in US9023817B2, “Use of albiflorin for anti-depression” (priority 2009, dated 2015).

Tests used:
ICR mice [1] = test: Forced swimming test in mice; type: in vivo; conditions: 3.5 mg/kg/d by gavage for two days; 1 h after administration; last 4 min
Method: Each group was administered by gavage at a dose of 0.2 ml/10 g weight, for two days, deionized water was administered to vehicle group.
In the second day, 1 h after the administration, the mice were placed separately into a water cylinder with 20 cm of height, 18 cm of diameter, 10 cm of depth, 23±2° C. of water temperature; observing each for 6 min, after 2 min of adaption, the immobility time over the last 4 min was recorded.
The data was expressed as x±s, analyzed by SPSS 13.0 statistical software by means of One-Way ANOVA test, the homogeneity of variance was tested by LSD and SNK test.

[2] = test system: rats with chronic stress induced depression model; test: Body weights of rats with chronic stress induced depression (CUMS); type: in vivo, SD rats
Method: (§1) The gavage was carried out along with the model establishment, once a day, for 21 days. […] Referring to the methods in the literature (Xu Jing, Li Xiaoqiu, Establishment and evaluation of the model of chronic stress induced depression, Chinese Journal of Behavioral Medical Science, 2003, 12(1): 14 16), the model was established (i.e., establishing animal model of anti-depression by means of CUMS): the foot electric shock (voltage: […] (5 minutes), drying at 45° C. (5 minutes), tail nipping (1 min), wet feeding (wet mat), reversed day and night (24 hours), fasting (24 hours), water deprivation (24 hours) were randomly scheduled within 21 days, one kind of stimulations was given for each day, except for the animals of vehicle group, the others were separately caged with free diet, at the room temperature of (24±1)° C., with the relative humidity of (60±10)%. All parameters to be tested were expressed as Mean±SD (X±s), and tested by means of analysis of variance (ANOVA) in SPSS 12.0 software (purchased from SPSS Inc., USA), p<0.05 means that there was a significant difference.

[3] = test system: rats with chronic stress induced depression model; test: Jump stair test, chronic stress induced depression; type: in vivo, SD rats; conditions: 3.5 mg/kg/day gavage for 21 days, 5 minutes
Method: as §1, with “(60±10)%. […] A wooden platform (height: 5 cm, diameter: 8 cm) was placed into the box at the left back corner. Animals were placed into the response box to adapt to the environment for 3 minutes, and then the box was immediately electrified with […] alternating current, the normal response of the animal which suffered from electric shock was to jump onto the platform in order to avoid such harmful stimulation. Most animals were likely to jump down to the copper railings again or for several times, and then quickly jump back to the platform after suffering from the electric shock, being trained like this for 5 minutes, the times that the rats suffered from the electric shock were designated as error times. The test was carried out again after 24 hours, rats were placed on the platform and the box was charged, timing and recording the error times for 5 minutes.” for “(60±10)%.”

ICR mice [4] = test: Acute toxicity test of Albiflorin; type: in vivo
Method: SFP level ICR mice were administered with Albiflorin at a dose of 8.4 g/kg, the observation time was 14 days.
The nature and rate of breath, behaviors (especially whether there was any vomit-causing phenomenon), actions, color and tension of fur, abdominal shape, hardness of feces, body weight and the like were observed.

`C[C@]12C[C@@H](O)[C@@H]3C[C@@]1(O[C@@H]1O[C@H](CO)[C@@H](O)[C@H](O)[C@H]1O)[C@@]3(COC(=O)c1ccccc1)C(=O)O2` [Albiflorin] was tested, and the “Immobility Time” value (ICR mice [1]) was 44.85 ± 29.695 s, the body weights ([2]; 3.5 mg/kg/day gavage, Day 0) was 256.83 ± 11.49 g and the body weights ([2]; 3.5 mg/kg/day gavage, Day 7) was 265.65 ± 11.23 g. The body weights ([2]; 3.5 mg/kg/day gavage, Day 14) was 270.75 ± 18.15 g, the body weights ([2]; 3.5 mg/kg/day gavage, Day 21) was 271.07 ± 19.06 g and the body weights ([2]; 7 mg/kg/day gavage, Day 0) was 250.18 ± 13.45 g. For the same compound, the body weights ([2]; 7 mg/kg/day gavage, Day 7) was 265.65 ± 12.44 g, the body weights ([2]; 14 mg/kg/day gavage, Day 0) was 255.84 ± 11.69 g and the body weights ([2]; 14 mg/kg/day gavage, Day 7) was 268.11 ± 17.50 g. The “Error times in training period” value [3] was 2.25 ± 1.42, the “Error times in testing period” value ([3]; after 24 hours) was 2.08 ± 1.31 and the “safe dosage as multiple of the clinical dosage” value (ICR mice [4]; 8.4 g/kg body weight, mice, by gavage) was “approximately 600 times”. The “body weight compared with the vehicle group” value (ICR mice [4]; 8.4 g/kg by gavage, Day 7 and Day 14) was “without significant difference”, the “abnormal symptoms and death” value (ICR mice [4]; 8.4 g/kg by gavage, observation for 14 days) was “neither any abnormal symptom nor any death was found” and the “dosage at which still safe” value (ICR mice [4]; mice, by gavage) was 8.4 g/kg body weight.
